Experimental data taken from the supplement of paper PMC10307832.

Key:
Experiment in all cases: relative viability (nuclei count vs DMSO), 5 days (fraction); higher = more cells survive
Sulindac + Decitabine = compound: CC1=C(CC(=O)O)c2cc(F)ccc2/C1=C\c1ccc([S+](C)[O-])cc1 [Sulindac] + Nc1ncn([C@H]2C[C@H](O)[C@@H](CO)O2)c(=O)n1 [Decitabine] (partner 2 µM)
Outline: (§1)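 For relative viability, nuclei counts in treated wells were divided by those in vehicle wells. Lung cancer cell lines had been pin-tool dosed in 1536-well plates the day after seeding and cultured for 5 days, then fixed and stained in one step (final 0.05% Triton X-100, 1% formaldehyde, 1 ug/ml Hoechst) and imaged at 4×. Doses were one drug alone or a fixed anchor-drug dose plus five library-drug doses (not always all listed) in √10 steps, and values are duplicate-plate medians.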

Staurosporine + AZD7762 = compound: CN[C@@H]1C[C@H]2O[C@@](C)([C@@H]1OC)n1c3ccccc3c3c4c(c5c6ccccc6n2c5c31)C(=O)NC4 [Staurosporine] + NC(=O)Nc1cc(-c2cccc(F)c2)sc1C(=O)N[C@H]1CCCNC1 [AZD7762] (partner 0.2 µM)
Outline: as §1

Sulindac + OSI-027 = compound: CC1=C(CC(=O)O)c2cc(F)ccc2/C1=C\c1ccc([S+](C)[O-])cc1 [Sulindac] + COc1cccc2cc(-c3nc([C@H]4CC[C@H](C(=O)O)CC4)n4ncnc(N)c34)[nH]c12 [OSI-027] (partner 0.5 µM)
Outline: as §1

[1] = compound: CN[C@@H]1C[C@H]2O[C@@](C)([C@@H]1OC)n1c3ccccc3c3c4c(c5c6ccccc6n2c5c31)C(=O)NC4 [Staurosporine] + CC1(C)CCC(c2ccc(Cl)cc2)=C(CN2CCN(c3ccc(C(=O)NS(=O)(=O)c4ccc(N[C@H](CCN5CCOCC5)CSc5ccccc5)c(S(=O)(=O)C(F)(F)F)c4)cc3)CC2)C1 [Navitoclax] (partner 0.5 µM)
Outline: as §1

Row | Cell Line | relative viability (Sulindac + Decitabine; first compound 0.08 µM) | relative viability (Sulindac + Decitabine; first compound 0.253 µM) | relative viability (Sulindac + Decitabine; first compound 2.53 µM) | relative viability (Sulindac + Decitabine; first compound 8 µM) | relative viability (Staurosporine + AZD7762; first compound 0.005 µM) | relative viability (Staurosporine + AZD7762; first compound 0.01581 µM) | relative viability (Staurosporine + AZD7762; first compound 0.05 µM) | relative viability (Staurosporine + AZD7762; first compound 0.1581 µM) | relative viability (Staurosporine + AZD7762; first compound 0.5 µM) | relative viability (Sulindac + OSI-027; first compound 0.08 µM) | relative viability (Sulindac + OSI-027; first compound 0.253 µM) | relative viability (Sulindac + OSI-027; first compound 0.8 µM) | relative viability (Sulindac + OSI-027; first compound 2.53 µM) | relative viability (Sulindac + OSI-027; first compound 8 µM) | relative viability ([1]; first compound 0.005 µM) | relative viability ([1]; first compound 0.01581 µM) | relative viability ([1]; first compound 0.05 µM) | relative viability ([1]; first compound 0.1581 µM) | relative viability ([1]; first compound 0.5 µM) | relative viability (Sulindac + Decitabine; first compound 0.8 µM)
1 | NCI-H596 | 0.894 | 0.982 | 1.2 | 1.1 | 1.08 | 0.769 | 0.471 | 0.28 | 0.303 | 0.798 | 0.761 | 0.76 | 0.77 | 0.772 | 1.11 | 0.665 | 0.322 | 0.179 | 0.0954 | –
2 | NCI-H1792 | 0.476 | 0.632 | 0.581 | 0.417 | 0.227 | 0.0748 | 0.0605 | 0.0466 | 0.0293 | 0.848 | 0.884 | – | 0.815 | 0.899 | 0.735 | 0.473 | 0.197 | – | 0.136 | –
3 | NCI-H1755 | 0.798 | 0.634 | 0.785 | 0.833 | 0.318 | 0.228 | 0.214 | 0.224 | 0.224 | 0.776 | 0.64 | 0.661 | 0.733 | 0.763 | 1.01 | 0.633 | 0.253 | 0.185 | 0.138 | 0.705
4 | EPLC-272H | 0.313 | – | 0.369 | 0.428 | 0.235 | 0.145 | 0.111 | 0.0612 | 0.0657 | 0.274 | 0.286 | – | 0.256 | 0.327 | 1.34 | 0.463 | 0.409 | 0.163 | 0.19 | 0.301
